# According to ChEMBL document CHEMBL4373717, “Coumarin-containing hybrids and their anticancer activities” (Eur J Med Chem, 2019):
# Tests used:
# [1] = test system: SK-OV-3; test: Growth inhibition of human SKOV3 cells; format: functional
# [2] = Growth inhibition of human KATO III cells; format: functional
# [3] = test system: HepG2; test: Growth inhibition of human HepG2 cells; format: functional
# [4] = test system: WiDr; test: Growth inhibition of human WiDr cells; format: functional
# [5] = test system: MCF7; test: Growth inhibition of human MCF7 cells; format: functional
# [6] = test system: AGS; test: Growth inhibition of human AGS cells; format: functional
# [7] = test system: OVCAR-8; test: Growth inhibition of human OVCAR8 cells; format: functional
# [8] = test system: PANC-1; test: Growth inhibition of human PANC1 cells; format: functional
# [9] = test system: BXPC-3; test: Growth inhibition of human BxPC3 cells; format: functional
# [10] = test system: SN12C; test: Growth inhibition of human SN12C cells; format: functional
# [11] = test system: T-24; test: Growth inhibition of human T24 cells; format: functional
# [12] = test system: SNU1; test: Growth inhibition of human SNU1 cells; format: functional
# [13] = test system: MCF7; test: Cytotoxicity against human MCF7 cells assessed as reduction in cell viability after 48 hrs by MTT assay; format: functional, cell-based; settings: MCF7, 48 h
# [14] = test system: HepG2; test: Cytotoxicity against human HepG2 cells assessed as reduction in cell viability after 48 hrs by MTT assay; format: functional, cell-based; settings: HepG2, 48 h
# [15] = test system: MCF7; test: Cytotoxicity against human MCF7 cells assessed as reduction in cell viability by MTT assay; format: functional, cell-based; settings: Homo sapiens, MCF7
# [16] = test system: A549; test: Cytotoxicity against human A549 cells assessed as reduction in cell viability by MTT assay; format: functional, cell-based
# [17] = test system: BT-20; test: Cytotoxicity against human BT20 cells assessed as reduction in cell viability after 24 hrs by MTT assay; format: functional, cell-based; settings: BT-20, 24 h
# [18] = test system: A549; test: Cytotoxicity against human A549 cells assessed as reduction in cell viability after 24 hrs by MTT assay; format: functional, cell-based; settings: A549, 24 h
# [19] = test system: SK-MEL-28; test: Cytotoxicity against human SK-MEL-28 cells assessed as reduction in cell viability after 24 hrs by MTT assay; format: functional, cell-based; settings: SK-MEL-28, 24 h
# [20] = test system: DU-145; test: Cytotoxicity against human DU145 cells assessed as reduction in cell viability after 24 hrs by MTT assay; format: functional, cell-based; settings: DU-145, 24 h
# [21] = test system: HeLa; test: Cytotoxicity against human HeLa cells assessed as reduction in cell viability after 72 hrs by MTT assay; format: functional, cell-based
# [22] = test system: Caco-2; test: Cytotoxicity against human Caco2 cells assessed as reduction in cell viability after 72 hrs by MTT assay; format: functional, cell-based; settings: Caco-2, 72 h
# [23] = test system: K562; test: Cytotoxicity against human K562 cells assessed as reduction in cell viability after 72 hrs by MTT assay; format: functional, cell-based; settings: K562, 72 h
# [24] = test system: DLD-1; test: Cytotoxicity against human DLD1 cells assessed as reduction in cell viability; format: functional, cell-based
# [25] = target: Vascular endothelial growth factor receptor 2 (Homo sapiens, UniProt P35968); test: Inhibition of VEGFR2 (unknown origin)
# Vascular endothelial growth factor receptor 2, sequence (P35968 whole entry): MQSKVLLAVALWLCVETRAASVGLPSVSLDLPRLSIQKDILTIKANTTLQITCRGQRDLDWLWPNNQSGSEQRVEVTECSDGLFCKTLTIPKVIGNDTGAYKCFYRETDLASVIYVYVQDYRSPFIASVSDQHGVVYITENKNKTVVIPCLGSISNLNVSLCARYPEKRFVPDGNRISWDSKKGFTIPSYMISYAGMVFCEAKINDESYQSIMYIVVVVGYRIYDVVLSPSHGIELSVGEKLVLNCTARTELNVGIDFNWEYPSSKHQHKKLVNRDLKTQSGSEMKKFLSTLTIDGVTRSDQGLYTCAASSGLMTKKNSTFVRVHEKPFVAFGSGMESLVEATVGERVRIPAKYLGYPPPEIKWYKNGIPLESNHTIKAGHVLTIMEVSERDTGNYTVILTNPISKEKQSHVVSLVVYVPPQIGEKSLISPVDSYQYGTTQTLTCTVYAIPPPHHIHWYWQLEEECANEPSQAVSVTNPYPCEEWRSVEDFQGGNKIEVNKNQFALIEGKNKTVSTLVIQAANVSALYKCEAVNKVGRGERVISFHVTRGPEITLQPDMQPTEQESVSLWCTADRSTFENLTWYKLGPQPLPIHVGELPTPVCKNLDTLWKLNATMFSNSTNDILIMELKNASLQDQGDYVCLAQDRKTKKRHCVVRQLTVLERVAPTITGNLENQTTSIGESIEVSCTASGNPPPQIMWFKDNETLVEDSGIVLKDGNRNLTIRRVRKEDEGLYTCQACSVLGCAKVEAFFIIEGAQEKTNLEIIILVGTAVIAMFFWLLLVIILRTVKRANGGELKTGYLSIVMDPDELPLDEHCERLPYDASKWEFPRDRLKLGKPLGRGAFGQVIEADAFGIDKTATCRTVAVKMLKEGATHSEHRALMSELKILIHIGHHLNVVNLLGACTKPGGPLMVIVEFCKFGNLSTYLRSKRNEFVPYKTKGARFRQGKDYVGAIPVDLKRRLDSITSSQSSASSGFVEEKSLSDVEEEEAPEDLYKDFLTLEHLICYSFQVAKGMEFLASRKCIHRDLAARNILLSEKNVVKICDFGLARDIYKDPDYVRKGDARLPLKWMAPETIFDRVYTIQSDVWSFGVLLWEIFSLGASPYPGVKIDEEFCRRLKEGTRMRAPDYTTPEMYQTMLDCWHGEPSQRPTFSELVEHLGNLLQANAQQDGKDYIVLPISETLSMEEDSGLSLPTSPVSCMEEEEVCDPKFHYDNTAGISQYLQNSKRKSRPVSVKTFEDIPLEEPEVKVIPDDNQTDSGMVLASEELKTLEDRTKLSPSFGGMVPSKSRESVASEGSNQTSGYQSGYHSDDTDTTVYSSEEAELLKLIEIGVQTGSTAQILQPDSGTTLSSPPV
# [26] = test system: MCF7; test: Cytotoxicity against human MCF7 cells assessed as reduction in cell viability; format: functional, cell-based
# [27] = test system: HCT-116; test: Cytotoxicity against human HCT116 cells assessed as reduction in cell viability after 96 hrs by MTT assay; format: functional, cell-based; settings: HCT-116, 96 h
# [28] = test system: MDA-MB-231; test: Cytotoxicity against human MDA-MB-231 cells assessed as reduction in cell viability after 96 hrs by MTT assay; format: functional, cell-based; settings: MDA-MB-231, 96 h
# [29] = test system: HT-29; test: Cytotoxicity against human HT-29 cells assessed as reduction in cell viability after 96 hrs by MTT assay; format: functional, cell-based; settings: HT-29, 96 h
# [30] = test system: OVCAR-3; test: Anticancer activity against human OVCAR3 cells by CCK8 assay; format: functional, cell-based
# [31] = test system: A2780; test: Anticancer activity against human A2780 cells by CCK8 assay; format: functional, cell-based
# [32] = test system: Hep 3B2; test: Anticancer activity against human Hep3B cells by CCK8 assay; format: functional, cell-based
# [33] = test system: HepG2; test: Anticancer activity against human HepG2 cells by CCK8 assay; format: functional, cell-based
# [34] = test system: HeLa; test: Cytotoxicity against human HeLa cells assessed as reduction in cell viability after 24 hrs by MTT assay; format: functional, cell-based
# [35] = test system: L02; test: Cytotoxicity against human L02 cells assessed as reduction in cell viability after 24 hrs by MTT assay; format: cell-based; settings: L02, 24 h
# [36] = test system: MDA-MB-231; test: Cytotoxicity against human MDA-MB-231 cells assessed as reduction in cell viability after 24 hrs by MTT assay; format: functional, cell-based; settings: Homo sapiens, MDA-MB-231, 24 h
# [37] = test system: HEK-293T; test: Cytotoxicity against HEK293T cells assessed as reduction in cell viability after 24 hrs by MTT assay; format: cell-based; settings: Homo sapiens
# [38] = test system: MCF7; test: Cytotoxicity against human MCF7 cells assessed as reduction in cell viability after 24 hrs by MTT assay; format: functional, cell-based; settings: MCF7, 24 h
compound,measurement,setting,value
Cc1cc2nc(-c3cc4ccccc4oc3=O)[nH]c2cc1C,GI50,[1],0.07 to 3.57 µM
same,GI50,[2],0.07 to 3.57 µM
same,GI50,[3],0.07 to 3.57 µM
same,GI50,[4],0.07 to 3.57 µM
same,GI50,[5],> 10 µM
same,GI50,[6],0.07 to 3.57 µM
same,GI50,[7],0.07 to 3.57 µM
same,GI50,[8],0.07 to 3.57 µM
same,GI50,[9],0.07 to 3.57 µM
same,GI50,[10],0.07 to 3.57 µM
same,GI50,[11],0.07 to 3.57 µM
same,GI50,[12],0.07 to 3.57 µM
Cc1ccc2[nH]c(-c3cc4ccccc4oc3=O)nc2c1,GI50,[1],0.07 to 3.57 µM
same,GI50,[2],0.07 to 3.57 µM
same,GI50,[3],0.07 to 3.57 µM
same,GI50,[4],0.07 to 3.57 µM
same,GI50,[5],> 10 µM
same,GI50,[6],0.07 to 3.57 µM
same,GI50,[7],0.07 to 3.57 µM
same,GI50,[8],0.07 to 3.57 µM
same,GI50,[9],0.07 to 3.57 µM
same,GI50,[10],0.07 to 3.57 µM
same,GI50,[11],0.07 to 3.57 µM
same,GI50,[12],0.07 to 3.57 µM
Cc1cc(-c2cc3cc(Cl)ccc3oc2=O)n(-c2nc(-c3ccc(Cl)cc3)cs2)n1,IC50,[13],4.03 to 31.5 µM
same,IC50,[14],3.06 to 3.74 µM
COc1ccc(-c2csc(-n3nc(C)cc3-c3cc4cc(Cl)ccc4oc3=O)n2)cc1,IC50,[13],4.03 to 31.5 µM
same,IC50,[14],3.06 to 3.74 µM
O=C(CNCc1cccnc1)Nc1cc2ccccc2oc1=O,IC50,[15],69.1 to 378 µM
same,IC50,[16],69.1 to 378 µM
O=C(Cn1nc(Cc2ccccc2Br)[nH]c1=O)NNC(=O)c1cc2cc(Cl)cc(Cl)c2oc1=O,IC50,[17],3.1 to 37.9 µg/mL
same,IC50,[18],3.1 to 37.9 µg/mL
same,IC50,[19],3.1 to 37.9 µg/mL
same,IC50,[20],3.1 to 37.9 µg/mL
COc1ccc(-c2cn(Cc3cc(=O)oc4cc(O)c(O)cc34)nn2)cc1,IC50,[21],9.7 to 81.9 µM
same,IC50,[22],9.7 to 81.9 µM
same,IC50,[23],9.7 to 81.9 µM
Cc1ccc(/N=N/c2sc(N3N=C(c4c(O)c5ccccc5oc4=O)CC3c3ccc(N(C)C)cc3)nc2-c2ccccc2)cc1 (configuration not stated),IC50,[24],114 to 129 µM
same,IC50,[25],0.034 to 0.582 µM
same,IC50,[26],5.41 to 6.56 µM
COc1cccc(-c2cn(Cc3cc(=O)oc4cc(O)c(O)cc34)nn2)c1,IC50,[21],9.7 to 81.9 µM
same,IC50,[22],9.7 to 81.9 µM
same,IC50,[23],9.7 to 81.9 µM
Cc1ccc2c(Cn3cc(CO[C@H]4O[C@@H]5O[C@@]6(C)CC[C@H]7[C@H](C)CC[C@@H]([C@H]4C)[C@@]57OO6)nn3)cc(=O)oc2c1,IC50,[27],8.57 to 100 µM
same,IC50,[28],8.57 to 100 µM
same,IC50,[29],8.57 to 100 µM
COc1ccc2oc(=O)c(-c3nc4cc(OC)ccc4[nH]3)cc2c1,GI50,[1],0.07 to 3.57 µM
same,GI50,[2],0.07 to 3.57 µM
same,GI50,[3],0.07 to 3.57 µM
same,GI50,[4],0.07 to 3.57 µM
same,GI50,[5],> 10 µM
same,GI50,[6],0.07 to 3.57 µM
same,GI50,[7],0.07 to 3.57 µM
same,GI50,[8],0.07 to 3.57 µM
same,GI50,[9],0.07 to 3.57 µM
same,GI50,[10],0.07 to 3.57 µM
same,GI50,[11],0.07 to 3.57 µM
same,GI50,[12],0.07 to 3.57 µM
O=c1cc(Cn2cc(-c3ccccc3)nn2)c2cc(O)c(O)cc2o1,IC50,[21],9.7 to 81.9 µM
same,IC50,[22],9.7 to 81.9 µM
same,IC50,[23],9.7 to 81.9 µM
CCN(CC)c1ccc2cc(C(=O)N3CCN(CCC[C@H]4O[C@@H]5O[C@@]6(C)CC[C@H]7[C@H](C)CC[C@@H]([C@H]4C)[C@@]57OO6)CC3)c(=O)oc2c1,IC50,[30],3.05 to 5.82 µM
same,IC50,[31],3.05 to 5.82 µM
same,IC50,[32],3.05 to 5.82 µM
same,IC50,[33],3.05 to 5.82 µM
Cc1cc(-c2cc3ccccc3oc2=O)n(-c2nc(-c3ccc(Cl)cc3)cs2)n1,IC50,[13],4.03 to 31.5 µM
same,IC50,[14],3.06 to 3.74 µM
CC(C)=CC[C@@H](OCc1ccc(C(=O)/N=C/c2c(Cl)c3ccccc3oc2=O)cc1)C1=CC(=O)c2c(O)ccc(O)c2C1=O,IC50,[34],3.25 to 10.6 µM
same,IC50,[18],3.25 to 10.6 µM
same,IC50,[35],3.25 to 10.6 µM
same,IC50,[36],3.25 to 10.6 µM
same,IC50,[37],3.25 to 10.6 µM
same,IC50,[38],3.25 to 10.6 µM
Cc1cc(C)c2c(Cn3cc(CO[C@H]4O[C@@H]5O[C@@]6(C)CC[C@H]7[C@H](C)CC[C@@H]([C@H]4C)[C@@]57OO6)nn3)cc(=O)oc2c1,IC50,[27],8.57 to 100 µM
same,IC50,[28],8.57 to 100 µM
same,IC50,[29],8.57 to 100 µM
CN(C)c1ccc(C2CC(c3cc4ccccc4oc3=O)=NN2c2nc(-c3ccccc3)c(/N=N/c3ccc(Cl)cc3)s2)cc1 (configuration not stated),IC50,[24],114 to 129 µM
same,IC50,[25],0.034 to 0.582 µM
same,IC50,[26],5.41 to 6.56 µM
C[C@H]1[C@@H](OCc2cn(Cc3cc(=O)oc4cc(O)ccc34)nn2)O[C@@H]2O[C@@]3(C)CC[C@H]4[C@H](C)CC[C@@H]1[C@@]24OO3,IC50,[27],8.57 to 100 µM
same,IC50,[28],8.57 to 100 µM
same,IC50,[29],8.57 to 100 µM
